# Values of other authors in patent US6660871B2, “Synthesis of 4H-chromene derivatives” (Thomas Jefferson Unversity, priority 2001, dated 2003).
# System: tumor cells
structure (smiles),measurement,value
CCOC(=O)C1=C(N)Oc2ccc(Br)cc2C1C(C#N)C(=O)OCC (stereo not shown) [HA14-1],apoptosis of tumor cells,induces apoptosis of tumor cells
